Reference: patent US20240366589A1, “NHE3-BINDING COMPOUNDS AND METHODS FOR INHIBITING PHOSPHATE TRANSPORT” (Ardelyx, Inc., priority 2013, published 2024)
“And” between values parts separate entries of the source, which are not always exact repeats. Identical values can stand only once.

Experiments:
[1] = test system: phosphorus and calcium levels in the urine of rats; test: Urinary excretion of phosphate and calcium in rats (16 h overnight urine); assay type: in vivo, rat; conditions: rats, oral gavage, 16 h post-dose
[2] = test system: absorption of sodium from the intestinal lumen; test: Fecal form score (FFS) 16 h after oral dose in rats; assay type: in vivo, rat; conditions: oral gavage, 16 h post-dose, scale 1-5
In short: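 Eight-week-old Sprague-Dawley rats (n=6) dosed by oral gavage with compound or water vehicle between 4 and 5 PM, then housed in metabolic cages with food and water ad libitum. At 16 h, fecal form scored 1 (normal pellet) to 5 (liquid streams) by two observers; group mean reported.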

[3] = test system: absorption of sodium from the intestinal lumen; test: Inhibition of intestinal sodium absorption: urinary sodium (uNa) 16 h after single oral dose in rats; assay type: in vivo, rat; conditions: oral gavage, 16 h post-dose
In short: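 Eight-week-old Sprague-Dawley rats (n=6) given single oral gavage of compound or water vehicle in the late afternoon, then kept in metabolic cages with chow and water ad libitum. Urine collected over 16 h; sodium quantified by ion chromatography and expressed as % of vehicle mean, compared by one-way ANOVA with Dunnett's test.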

Human NHE3 = molecular target: T1, Human NHE3 (Homo sapiens, UniProt P48764); test: Cell-based NHE3 activity under prompt conditions (OK cells, BCECF pH recovery), human NHE3; conditions: prompt conditions
T1 construct: expressed in transfected cells; host or cells: Opossum kidney (OK) cells (ATCC), electroporation
T1 sequence (P48764 26-834): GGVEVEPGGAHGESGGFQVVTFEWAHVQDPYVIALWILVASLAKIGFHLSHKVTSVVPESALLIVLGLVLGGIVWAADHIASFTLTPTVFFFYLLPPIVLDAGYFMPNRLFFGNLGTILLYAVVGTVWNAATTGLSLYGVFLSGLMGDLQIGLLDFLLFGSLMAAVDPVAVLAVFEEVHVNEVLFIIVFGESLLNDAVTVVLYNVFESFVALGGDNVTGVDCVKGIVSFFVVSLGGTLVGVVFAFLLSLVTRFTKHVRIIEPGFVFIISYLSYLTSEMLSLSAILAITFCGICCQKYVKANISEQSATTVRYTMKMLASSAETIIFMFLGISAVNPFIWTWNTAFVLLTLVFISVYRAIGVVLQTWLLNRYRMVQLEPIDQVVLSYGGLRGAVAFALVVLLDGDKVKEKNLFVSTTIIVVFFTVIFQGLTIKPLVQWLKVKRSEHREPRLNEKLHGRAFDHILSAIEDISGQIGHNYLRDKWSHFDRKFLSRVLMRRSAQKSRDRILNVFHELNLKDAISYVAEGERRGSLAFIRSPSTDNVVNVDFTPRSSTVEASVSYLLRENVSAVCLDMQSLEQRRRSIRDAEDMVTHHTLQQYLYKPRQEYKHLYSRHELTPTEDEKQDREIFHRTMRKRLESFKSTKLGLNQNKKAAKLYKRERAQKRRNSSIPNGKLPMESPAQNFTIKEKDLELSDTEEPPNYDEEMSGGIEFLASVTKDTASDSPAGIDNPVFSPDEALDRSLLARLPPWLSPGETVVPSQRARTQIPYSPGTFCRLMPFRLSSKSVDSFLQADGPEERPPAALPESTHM
Procedure: Cell-based activity under Prompt Conditions. Rat or human NHE3-mediated Na^+-dependent H antiport was measured using a modification of the pH sensitive dye method originally reported by Paradiso (PNAS USA. 81:7436-7440, 1984). Opossum kidney (OK) cells were obtained from the ATCC and propagated per their instructions. The rat NHE3 gene (GenBank M85300) or the human NHE3 gene (GenBank NM_004174.1) was introduced into OK cells via electroporation, and cells were seeded into 96 well plates and grown overnight. Medium was aspirated from the wells, cells were washed twice with NaCl-HEPES buffer (100 mM NaCl, 50 mM HEPES, 10 mM glucose, 5 mM KCl, 2 mM CaCl2, 1 mM MgCl2, pH 7.4), then incubated for 30 min at room temperature with NH4Cl-HEPES buffer (20 mM NH4Cl, 80 mM NaCl, 50 mM HEPES, 5 mM KCl, 2 mM CaCl2, 1 mM MgCl2, pH 7.4) containing 5 μM bis(acetoxymethyl) 3,3′-(3′,6′-bis(acetoxymethoxy)-5-((acetoxymethoxy)carbonyl)-3-oxo-3H-spiro[isobenzofuran-1,9′-xanthene]-2′,7′-diyl)dipropanoate (BCECF-AM).
Cells were washed twice with Ammonium free, Na^+-free HEPES (100 mM choline, 50 mM HEPES, 10 mM glucose, 5 mM KCl, 2 mM CaCl2, 1 mM MgCl2, pH 7.4) and incubated in the same buffer for 10 minutes at room temperature to lower intracellular pH. […] Initial rates were plotted as the average 2 or more replicates, and pIC50 values were estimated using GraphPad Prism.
Cell-based activity of NHE3 Activity under ‘Prompt’ Conditions. This assay was performed as described in Example 1 (supra).

Rat NHE3 = molecular target: T2, Rat NHE3 (Rattus norvegicus, UniProt P26433); test: Cell-based NHE3 activity under prompt conditions (OK cells, BCECF pH recovery), rat NHE3; conditions: prompt conditions
T2 construct: expressed in transfected cells; host or cells: Opossum kidney (OK) cells (ATCC), electroporation
T2 sequence (P26433 29-831): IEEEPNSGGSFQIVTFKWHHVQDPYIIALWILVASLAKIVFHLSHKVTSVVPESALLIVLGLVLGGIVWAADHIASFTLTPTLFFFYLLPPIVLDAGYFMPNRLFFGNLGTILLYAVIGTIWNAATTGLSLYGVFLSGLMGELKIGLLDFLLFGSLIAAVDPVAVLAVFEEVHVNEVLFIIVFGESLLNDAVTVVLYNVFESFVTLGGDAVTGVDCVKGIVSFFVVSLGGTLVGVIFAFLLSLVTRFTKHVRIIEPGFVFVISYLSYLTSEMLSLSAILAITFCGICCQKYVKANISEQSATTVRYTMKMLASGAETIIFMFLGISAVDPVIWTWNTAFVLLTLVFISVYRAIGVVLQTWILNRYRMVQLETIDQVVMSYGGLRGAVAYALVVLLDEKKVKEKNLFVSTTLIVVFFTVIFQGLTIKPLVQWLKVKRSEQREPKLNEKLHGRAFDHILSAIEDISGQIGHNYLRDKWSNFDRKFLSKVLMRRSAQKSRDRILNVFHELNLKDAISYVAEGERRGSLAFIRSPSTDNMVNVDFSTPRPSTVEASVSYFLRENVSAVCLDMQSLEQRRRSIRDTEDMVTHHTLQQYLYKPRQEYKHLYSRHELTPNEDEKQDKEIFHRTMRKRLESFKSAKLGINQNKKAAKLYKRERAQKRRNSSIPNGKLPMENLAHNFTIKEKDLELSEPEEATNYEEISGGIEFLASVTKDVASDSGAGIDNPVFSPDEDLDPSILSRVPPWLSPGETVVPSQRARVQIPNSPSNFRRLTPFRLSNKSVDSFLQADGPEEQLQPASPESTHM
In short: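 Cells (OK line, electroporated with rat or human NHE3) are washed in NaCl-HEPES pH 7.4, then dye-loaded 30 min at room temperature with 5 μM BCECF-AM in NH4Cl buffer.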

NCCOCCOCCOCCN1CCN(c2ccc(-c3nc(N=C(N)N)nc4ccc(Cl)cc34)cc2)CC1 [compound 18]
Urine P % of control ([1]; dose 10 mg/kg): 142%
Urine P % of control ([1]; dose 30 mg/kg): 109%
Fecal Form Score average ([2]; dose 10 mg/kg): 1
Fecal Form Score average ([2]; dose 30 mg/kg): 1
Urine Na % of control ([3]; dose 10 mg/kg): 74%
Urine Na % of control ([3]; dose 30 mg/kg): 41%
Prompt Human NHE3 pIC50 (Human NHE3): 7.35 and 6.90
Prompt Rat NHE3 pIC50 (Rat NHE3): 7.25 and 6.90

NCCOCCOCCN1CCN(c2ccc(-c3nc(N=C(N)N)nc4ccc(Cl)cc34)cc2)CC1 [compound 19]
Urine P % of control ([1]; dose 10 mg/kg): 119%
Fecal Form Score average ([2]; dose 10 mg/kg): 1
Urine Na % of control ([3]; dose 10 mg/kg): 72%
Prompt Human NHE3 pIC50 (Human NHE3): 7.40
Prompt Rat NHE3 pIC50 (Rat NHE3): 7.00

N=C(N)Nc1nc(-c2ccc(N3CCN(CCOCCOCCOCCNC(=O)NCCOCCOCCNC(=O)NCCOCCOCCOCCN4CCN(c5ccc(-c6nc(NC(=N)N)nc7ccc(Cl)cc67)cc5)CC4)CC3)cc2)c2cc(Cl)ccc2n1 [compound 20]
Urine P % of control ([1]; dose 10 mg/kg): 81%
Fecal Form Score average ([2]; dose 10 mg/kg): 1
Urine Na % of control ([3]; dose 10 mg/kg): 86%
Prompt Human NHE3 pIC50 (Human NHE3): 7.20
Prompt Rat NHE3 pIC50 (Rat NHE3): 7.30

CN(CC(=O)NCCOCCOCCOCCN1CCN(c2ccc(-c3nc(NC(=N)N)nc4ccc(Cl)cc34)cc2)CC1)CC(=O)NCCOCCOCCOCCN1CCN(c2ccc(-c3c(Cl)ccc4nc(NC(=N)N)ncc34)cc2)CC1 [compound 21]
Urine P % of control ([1]; dose 10 mg/kg): 101%
Fecal Form Score average ([2]; dose 10 mg/kg): 1
Urine Na % of control ([3]; dose 10 mg/kg): 66%
Prompt Human NHE3 pIC50 (Human NHE3): 7.00
IC50 (Rat NHE3; read-out: Prompt Rat NHE3 pIC50 (converted)): 794 nM

CN1Cc2c(Cl)cc(Cl)cc2[C@H](c2cccc(S(=O)(=O)NCCOCCOCCOCCN)c2)C1 [compound 22]
Urine P % of control ([1]; dose 1 mg/kg): 64%
Urine P % of control ([1]; dose 10 mg/kg): 40%
Fecal Form Score average ([2]; dose 1 mg/kg): 1
Fecal Form Score average ([2]; dose 10 mg/kg): 2
Urine Na % of control ([3]; dose 1 mg/kg): 91%
Urine Na % of control ([3]; dose 10 mg/kg): 19%
Prompt Human NHE3 pIC50 (Human NHE3): 6.95
Prompt Rat NHE3 pIC50 (Rat NHE3): 7.34

N=C(N)Nc1nc(-c2cccc(N3CCN(CCOCCOCCOCCNC(=O)CCOCCOCCOCCOCCOCCC(=O)NCCOCCOCCOCCN4CCN(c5cccc(-c6nc(NC(=N)N)nc7ccc(Cl)cc67)c5)CC4)CC3)c2)c2cc(Cl)ccc2n1 [compound 23]
Urine P % of control ([1]; dose 10 mg/kg): 95%
Fecal Form Score average ([2]; dose 10 mg/kg): 1
Urine Na % of control ([3]; dose 10 mg/kg): 73%
Prompt Human NHE3 pIC50 (Human NHE3): 8.55
Prompt Rat NHE3 pIC50 (Rat NHE3): 6.87

N=C(N)Nc1nc(-c2ccc(N3CCN(CCOCCOCCOCCNC(=O)CCOCCOCCOCCOCCOCCC(=O)NCCOCCOCCOCCN4CCN(c5ccc(-c6nc(NC(=N)N)nc7ccc(Cl)cc67)cc5)CC4)CC3)cc2)c2cc(Cl)ccc2n1 [compound 24]
Urine P % of control ([1]; dose 10 mg/kg): 80%
Urine P % of control ([1]; dose 30 mg/kg): 70%
Fecal Form Score average ([2]; dose 10 mg/kg): 1
Fecal Form Score average ([2]; dose 30 mg/kg): 3
Urine Na % of control ([3]; dose 10 mg/kg): 100%
Urine Na % of control ([3]; dose 30 mg/kg): 27%
Prompt Human NHE3 pIC50 (Human NHE3): 8.58
Prompt Rat NHE3 pIC50 (Rat NHE3): 7.68

CN1Cc2c(Cl)cc(Cl)cc2[C@H](c2cccc(S(=O)(=O)NCCOCCOCCOCCNC(=O)COCC(=O)NCCOCCOCCOc3cccc(-c4nc(NC(=N)N)nc5ccc(Cl)cc45)c3)c2)C1 [compound 25]
Urine P % of control ([1]; dose 10 mg/kg): 150%
Fecal Form Score average ([2]; dose 10 mg/kg): 1
Urine Na % of control ([3]; dose 10 mg/kg): 87%
Prompt Human NHE3 pIC50 (Human NHE3): 6.60
Prompt Rat NHE3 pIC50 (Rat NHE3): 6.85

C/C(=C\c1cc(F)c(Oc2ccc(S(=O)(=O)NCCOCCOCCOCCNC(=O)OCCOCCOCCOC(=O)NCCOCCOCCOCCNS(=O)(=O)c3ccc(Oc4c(F)cc(/C=C(\C)C(=O)N=C(N)N)cc4F)cc3)cc2)c(F)c1)C(=O)N=C(N)N [compound 26]
Urine P % of control ([1]; dose 10 mg/kg): 77%
Fecal Form Score average ([2]; dose 10 mg/kg): 1
Urine Na % of control ([3]; dose 10 mg/kg): 78%
Prompt Human NHE3 pIC50 (Human NHE3): 7.70
Prompt Rat NHE3 pIC50 (Rat NHE3): 7.50
